Measured values: patent US12517136B2, “Il-17F-specific capture agents, compositions, and methods of using and making” (California Institute of Technology, priority 2015, dated 2026)
Like-named read-outs stand apart in the source and are kept apart here. Each block holds one compound with its values, some of them ahead of it. Bridge positions count the residues as written; N and C are the ends. Square brackets hold non-standard residues; d marks the D form. Triazole bridges read from a SMILES are 1,4-linked. Peptide text beside a SMILES is read from it. * marks the point of attachment. ξ: configuration not given here. X2 = O=C(CCCC[C@@H]1SC[C@@H]2NC(=O)N[C@@H]21)NCCCOCCOCCOCCCN*; X1 = O=C(CCCCC1SC[C@H]2NC(=O)N[C@@H]12)NCCCOCCOCCOCCCN*; Biotin = O=C1N[C@H]2[C@H](CS[C@H]2CCCCC(=O)*)N1; Lys(N3) = [N-]=[N+]=NCCCC[C@H](N)C(=O)O; Thr(3ξ) = CC(O)[C@H](N)C(=O)O; AEEEA = NCCOCCOCCOCC(=O)O; Pra = C#CC[C@H](N)C(=O)O

Columns and labels:
[1] = system: full-length His-tagged IL-17F and IL-17A proteins; assay: Point ELISA (IL-17F vs. IL-17A selectivity assay); format: binding, human; details: figure legends FIG. 2B, 4B, 4C
Description: Point ELISA (IL-17F vs. IL-17A selectivity assay). A black 96-well NeutrAvidin Coated High Binding Capacity plate (15510, Pierce) was coated with 2 μM macrocyclic peptide ligand in TBS (pH 7.6) for 2 h at room temperature. The plate was aspirated and then washed with TBS (5×) and Wash Buffer (0.05% (v/v) Tween-20 in PBS, 1×). Full-length His-tagged IL-17F (ab167911, Abcam) and IL-17A (ab166882, Abcam) proteins were prepared at 200 and 50 nM in Wash Buffer and incubated in the designated microwells for 90 min at room temperature. Microwells were aspirated and subsequently washed with Wash Buffer (10×). To detect the bound IL-17F and IL-17A proteins, Alkaline Phosphatase (AP)-conjugated Anti-6×His Tag® antibody [HIS-1] (ab49746, Abcam) was prepared at 1:10,000 dilution and added to the microwells for 1 h at room temperature. The plate was aspirated and washed with Wash Buffer (5×). AttoPhos® AP Fluorescent Substrate System (S1000, Promega) was employed to develop the microwells. Using an excitation wavelength of 430 nm, fluorescent emission at 535 nm was recorded by Beckman Coulter DTX880 photometer.
(§1) For these assays, the full-length His-tagged IL-17F and IL-17A proteins were captured using the macrocyclic peptide ligands immobilized on a NeutrAvidin-coated plate.
Point ELISA (IL-17F vs. IL-17A selectivity assay). A black 96-well NeutrAvidin Coated High Binding Capacity plate (15510, Pierce) was coated with 2 μM macrocyclic peptide ligand in TBS (pH 7.6) for 2 h at room temperature. Biotinylated monoclonal anti-IL17F (TA319597, Origene) was coated at 4 μg/mL in TBS as a control. The plate was aspirated and then washed with TBS (5×) and Wash Buffer (0.05% (v/v) Tween-20 in PBS, 1×). Full-length His-tagged IL-17F (ab167911, Abcam) and IL-17A (ab166882, Abcam) proteins were prepared at 100 nM in Wash Buffer and incubated in the designated microwells for 90 min at room temperature. Microwells were aspirated and subsequently washed with Wash Buffer (10×). To detect the bound IL-17F and IL-17A proteins, Alkaline Phosphatase (AP)-conjugated Anti-6×His Tag® antibody [HIS-1] (ab49746, Abcam) was prepared at 1:10,000 dilution and added to the microwells for 1 h at room temperature. The plate was aspirated and washed with Wash Buffer (5×). AttoPhos® AP Fluorescent Substrate System (S1000, Promega) was employed to develop the microwells. Using an excitation wavelength of 430 nm, fluorescent emission at 535 nm was recorded by Beckman Coulter DTX880 photometer.
as §1

[2] = system: His-tagged IL-17F epitopes; assay: Assay to determine orientation of macrocycle binding to IL-17F Epitope1 (point ELISA); details: for binding to epitope scrambled N-terminal to the click handle: epitope 2 μM, no-epitope background subtracted; for binding to the His-tagged IL-17F epitopes (overall, preferred sequence): three His-tagged epitopes, 2 μM
Description: Assay to determine orientation of macrocycle binding to IL-17F Epitope1. A black 96-well NeutrAvidin Coated High Binding Capacity plate (15510, Pierce) was coated with 2 μM macrocyclic peptide ligand in TBS (pH 7.6) for 2 h at room temperature. Biotinylated monoclonal anti-IL17F (TA319597, Origene) was coated at 4 μg/mL in TBS as a control. The plate was aspirated and then washed with TBS (5×) and Wash Buffer (0.05% (v/v) Tween-20 in PBS, 1×). Chemically synthesized His-tagged IL-17F epitopes were prepared at 2 μM in Wash Buffer and incubated in the designated microwells for 90 min at room temperature. Wash Buffer without epitope was added as a control. Microwells were aspirated and subsequently washed with Wash Buffer (10×). To detect the bound IL-17F epitopes, Alkaline Phosphatase (AP)-conjugated Anti-6×His Tag® antibody [HIS-1] (ab49746, Abcam) was prepared at 1:10,000 dilution and added to the microwells for 1 h at room temperature. The plate was aspirated and washed with Wash Buffer (5×). AttoPhos® AP Fluorescent Substrate System (S1000, Promega) was employed to develop the microwells. Using an excitation wavelength of 430 nm, fluorescent emission at 535 nm was recorded by Beckman Coulter DTX880 photometer. Data are shown after subtraction of the no-epitope background.
For this experiment, the IL-17F Epitope1 was re-synthesized with a His6 assay handle and C48S substitution instead of a click handle. Two additional His-tagged IL-17F epitopes were synthesized to contain strategic scrambling of the sequences either N-terminal or C-terminal to C48S. Point ELISAs for the three His-tagged IL-17F epitopes were conducted against the immobilized macrocyclic peptide ligands.

IL-17F [3] = biological target: T1, IL-17F (Homo sapiens, UniProt Q96PD4); assay: Sandwich ELISA: immobilized macrocyclic peptide ligand captures full-length His-tagged IL-17F; format: binding; parameters: Full-length His-tagged IL-17F protein (ab167911, Abcam); purchased Abcam ab167911
T1 sequence (Q96PD4 31-163): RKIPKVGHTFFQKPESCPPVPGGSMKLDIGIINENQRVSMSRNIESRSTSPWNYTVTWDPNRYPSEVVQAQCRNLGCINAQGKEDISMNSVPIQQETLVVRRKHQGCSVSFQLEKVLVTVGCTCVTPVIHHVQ
Description: Sandwich ELISA. A black 96-well NeutrAvidin Coated High Binding Capacity plate (15510, Pierce) was coated with 2 μM macrocyclic peptide ligand in TBS (25 mM Tris-HCl, 150 mM NaCl, pH 7.6) for 2 h at room temperature. Biotinylated monoclonal anti-IL17F (TA319597, Origene) was coated at 4 μg/mL in TBS as a control. The plate was aspirated and then washed with TBS (5×) and Wash Buffer (0.05% (v/v) Tween-20 in PBS, 1×). Full-length His-tagged IL-17F protein (ab167911, Abcam) was serially diluted in Wash Buffer (from 800 to 0 nM) and incubated in the designated microwells for 90 min at room temperature. Microwells were aspirated and subsequently washed with Wash Buffer (10×). […] (ab49746, Abcam) was prepared at 1:10,000 dilution and added to the microwells for 1 h at room temperature. The plate was aspirated and washed with Wash Buffer (5×). AttoPhos® AP Fluorescent Substrate System (S1000, Promega) was employed to develop the microwells. Using an excitation wavelength of 430 nm, fluorescent emission at 535 nm was recorded by Beckman Coulter DTX880 photometer. Titration curves were fit using a four-parameter regression curve fitting program (Origin 8.5) to determine EC50 values.
For these assays, a dilution series of full-length His-tagged IL-17F protein was captured using the macrocyclic peptide ligands immobilized on a NeutrAvidin-coated plate.
Sandwich ELISA. […]

IL-17F [4] = biological target: T1, IL-17F; assay: KD of PCC macrocycles and biligands against IL-17F (FIG. 12C); format: binding
[5] = biological target: Plasmodium falciparum Histidine Rich Protein-2 (Pf.HRP-2) (Plasmodium falciparum, UniProt P05227); format: binding

Structure (SMILES): NCCCC[C@@H]1NC(=O)[C@H](CCC(N)=O)NC(=O)[C@@H](N)Cc2cn(nn2)CCCC[C@@H](C(=O)NCCCOCCOCCOCCCNC(=O)CCCC[C@@H]2SC[C@@H]3NC(=O)N[C@@H]32)NC(=O)[C@@H]2CCCN2C(=O)CNC(=O)[C@H](Cc2c[nH]cn2)NC1=O [Cy(QKHGP), Cy(QKHGP) (SEQ ID NO:15)-PEG3-biotin] (H-[Pra]QKHGP[Lys(N3)]-X2; triazole 1-7)
- preferential binding, IL-17F vs IL-17A (in words) [1]: preferential binding to IL-17F
- preferential binding, IL-17F vs IL-17A (in words) ([1]; listed as QKHGP): preferential binding to IL-17F or IL-17A

Structure (SMILES): C[C@@H]1NC(=O)[C@H](CCCNC(=N)N)NC(=O)[C@H](CCCNC(=N)N)NC(=O)[C@@H](NC(=O)COCCOCCOCCNC(=O)[C@@H]2CCCCn3cc(nn3)C[C@H](NC(=O)COCCOCCOCCNC(=O)CCCC[C@@H]3SC[C@@H]4NC(=O)N[C@@H]43)C(=O)N[C@@H](CCCNC(=N)N)C(=O)N[C@@H](CO)C(=O)N[C@@H](Cc3ccc(O)cc3)C(=O)N[C@@H](CC(N)=O)C(=O)N[C@@H](CCCCN)C(=O)N2)Cc2cn(nn2)CCCC[C@@H](C(N)=O)NC(=O)[C@H](CO)NC(=O)[C@H]([C@@H](C)O)NC1=O [Cy(RSYNK)-PEG3-Cy(RRATS), Biotin-PEG3-Cy(RSYNK) (SEQ ID NO:28)-PEG3-Cy(RRATS) (SEQ ID NO: 9)] ({Biotin-AEEEA}-[Pra]RSYNK[Lys(N3)][AEEEA][Pra]RRATS[Lys(N3)]-NH2; triazole 1-7, 9-15)
- Kd (IL-17F [4]): 0.25 nM
- improvement in affinity relative to the individual PCC macrocyclic ligands (IL-17F [4]): > 100 fold

Structure (SMILES): C[C@@H](O)[C@@H]1NC(=O)[C@@H](N)Cc2cn(nn2)CCCC[C@@H](C(=O)NCCCOCCOCCOCCCNC(=O)CCCC[C@@H]2SC[C@@H]3NC(=O)N[C@@H]32)NC(=O)[C@@H]2CCCN2C(=O)CNC(=O)[C@H](Cc2c[nH]cn2)NC(=O)[C@H](CCCCN)NC1=O [Cy(TKHGP), Cy(TKHGP) (SEQ ID NO:16)-PEG3-biotin] (H-[Pra]TKHGP[Lys(N3)]-X2; triazole 1-7)
- preferential binding, IL-17F vs IL-17A (in words) [1]: preferential binding to IL-17F

Structure (SMILES): N=C(N)NCCC[C@@H]1NC(=O)[C@H](Cc2ccc(O)cc2)NC(=O)[C@H](Cc2ccc(O)cc2)NC(=O)[C@H](CCCCN)NC(=O)[C@H](Cc2ccc(O)cc2)NC(=O)[C@@H](N)Cc2cn(nn2)CCCC[C@@H](C(N)=O)NC1=O [Cy(YKYYR), Cy(YKYYR) (SEQ ID NO:29)] (H-[Pra]YKYYR[Lys(N3)]-NH2; triazole 1-7)
- EC50 [5]: 220 nM

Continued, in another order:

- preferential binding, IL-17F vs IL-17A (in words) [1]: preferential binding to IL-17F
Structure (SMILES): NCCCC[C@@H]1NC(=O)[C@H](CCCCN)NC(=O)[C@@H](NC(=O)COCCOCCOCCNC(=O)CCCC[C@@H]2SC[C@@H]3NC(=O)N[C@@H]32)Cc2cn(nn2)CCCC[C@@H](C(N)=O)NC(=O)[C@@H]2CCCN2C(=O)[C@H](Cc2c[nH]c3ccccc23)NC(=O)CNC1=O [Cy(KKGWP), Biotin-PEG3-Cy(KKGWP) (SEQ ID NO:23)] ({Biotin-AEEEA}-[Pra]KKGWP[Lys(N3)]-NH2; triazole 1-7)

- binding to epitope scrambled N-terminal to the click handle [2]: Binding was destroyed
- preferential binding, IL-17F vs IL-17A (in words) [1]: preferential binding to IL-17F
Structure (SMILES): C[C@@H]1NC(=O)[C@H](CCCNC(=N)N)NC(=O)[C@H](CCCNC(=N)N)NC(=O)[C@@H](N)Cc2cn(nn2)CCCC[C@@H](C(=O)NCCCOCCOCCOCCCNC(=O)CCCCC2SC[C@H]3NC(=O)N[C@@H]23)NC(=O)[C@H](CO)NC(=O)[C@H](CCC(N)=O)NC1=O (stereo partly shown) [Cy(RRAQS), Cy(RRAQS) (SEQ ID NO:10)-PEG3-biotin] (H-[Pra]RRAQS[Lys(N3)]-X1; triazole 1-7)
- binding to the His-tagged IL-17F epitopes (overall, preferred sequence) [2]: preferential binding to the sequence FFQKPES

- binding to epitope scrambled N-terminal to the click handle [2]: Binding was destroyed
- preferential binding, IL-17F vs IL-17A (in words) [1]: preferential binding to IL-17F
- preferential binding, IL-17F vs IL-17A (in words) ([1]; listed as RRATS): preferential binding to IL-17F or IL-17A
Structure (SMILES): CC(O)[C@@H]1NC(=O)[C@H](C)NC(=O)[C@H](CCCNC(=N)N)NC(=O)[C@H](CCCNC(=N)N)NC(=O)[C@@H](N)Cc2cn(nn2)CCCC[C@@H](C(=O)NCCCOCCOCCOCCCNC(=O)CCCCC2SC[C@H]3NC(=O)N[C@@H]23)NC(=O)[C@H](CO)NC1=O (stereo partly shown) [Cy(RRATS), Cy(RRATS) (SEQ ID NO:9)-PEG3-biotin] (H-[Pra]RRA[Thr(3ξ)]S[Lys(N3)]-X1; triazole 1-7)
- binding to the His-tagged IL-17F epitopes (overall, preferred sequence) [2]: preferential binding to the sequence FFQKPES

- preferential binding, IL-17F vs IL-17A (in words) [1]: preferential binding to IL-17F
- preferential binding, IL-17F vs IL-17A (in words) ([1]; listed as RSYNK): preferential binding to IL-17F or IL-17A
- EC50 (IL-17F [3]; 2 μM PEG3-biotin ligand on NeutrAvidin plate, His-tagged IL-17F 800 to 0 nM): 15 ± 5 nM
- Kd (IL-17F [4]; read-out: KD against IL-17F): 15 nM
Structure (SMILES): CC1N[C@@H](CCCCN)C(=O)N[C@H](C(N)=O)CCCCn2cc(nn2)C[C@H](NC(=O)COCCOCCOCCNC(=O)CCCC[C@@H]2SC[C@@H]3NC(=O)N[C@@H]32)C(=O)N[C@@H](CCCNC(=N)N)C(=O)N[C@@H](CO)C(=O)N[C@@H](Cc2ccc(O)cc2)C(=O)N[C@H]1CC(N)=O (stereo partly shown) [Cy(RSYNK), Biotin-PEG3-Cy(RSYNK) (SEQ ID NO:28)]
- binding affinity compared in words (ligand vs biotinylated monoclonal anti-IL17F) (IL-17F [3]; antibody coated at 4 μg/mL): exceeds the binding affinity of the similarly assayed biotinylated monoclonal anti-IL17F
